According to publication PMC11173628, “Imidazole Carbamates as a Promising Alternative for Treating Trichomoniasis: In Vitro Effects on the Growth and Gene Expression of Trichomonas vaginalis” (Molecules, 2024):
“Also recorded” adds a separate entry of the source. Blank lines part the entries; values can stand above or below the molecule they belong to.

Assays:
[1] = tested on: T. vaginalis trophozoites; experiment: Kinetic growth curve of T. vaginalis in presence of compounds; type: cell-based, Trichomonas vaginalis; conditions: compound at its IC50, monitored up to 96 h
Description: The trophozoites were incubated at the IC50 values for each compound. The viability and number of trophozoites were monitored at 6, 12, 18, 24, 48, 72, and 96 h with trypan blue (0.4%) (1:1, v/v) and XTT assays.
To understand the antiparasitic activities of the compounds against T. vaginalis cultures, we produced a curve of the kinetic growth of T. vaginalis as a function of time. […] Trophozoites were observed via light microscopy, and their growth and viability were evaluated at 6, 12, 24, 48, 72, and 96 h.

HT29 cells = experiment: In vitro cytotoxicity assay (XTT), HT29; conditions: CC50 HT29 / IC50 trophozoites
Description: (§1) Concentration–response curves for the viability of (A) Caco-2 and (B) HT29 cells treated with increasing concentrations of AGR compounds. […] Cell viability was determined using trypan blue dye exclusion (0.4%) (1:1, v/v) in a Neubauer chamber, as well as an XTT proliferation assay. Values represent the mean ± standard deviation of three independent experiments.
(§2) The Caco-2 and HT29 cell lines were provided by Luz Maria Rocha Ramirez from Hospital Infantil de México Federico Gómez, Secretaría de Salud. Cells were cultured in DMEM medium supplemented with 10% fetal bovine serum, 1% L-glutamine, and 1% penicillin/streptomycin at 37 °C in a 5% CO2 atmosphere. […] After incubation, cell viability was assessed using the XTT assay. The results are expressed as a percentage of viable cells compared with untreated cells. The cytotoxic concentration 50 (CC50) was calculated using GraphPad Prism 7.0 software. […] The assay was performed at least three times in triplicate. The selectivity index (SI) was calculated as SI = cells CC50/trophozoites IC50.

[2] = In vitro cytotoxicity assay (XTT), HT29; conditions: human
Description: as §1, §2

[3] = tested on: T. vaginalis Donne ATCC 30236 trophozoites; experiment: Determination of IC50 values (anti-Trichomonas activity, trypan blue and XTT); type: cell-based, Trichomonas vaginalis; conditions: for IC50: Trichomonas vaginalis, ATCC30236, T. vaginalis Donne ATCC 30236, 24 h, 37 °C, 0–10 µM, trypan blue and XTT, read-out: IC50 (viability of T. vaginalis trophozoites); for Enhancement of trichomonacidal effect in relation to MTZ: ratio of IC50 values vs MTZ; for Enhancement of trichomonacidal effect in relation to NTZ: ratio of IC50 values vs NTZ
Description: Figure 2 Determination of the IC50 values of AGR compounds on the culture of Trichomonas vaginalis. […] The trophozoites were incubated in the presence of the compounds for 24 h at 37 °C with different concentrations of each compound. Values represent the mean ± standard deviation of three independent experiments.
The T. vaginalis Donne ATCC 30236 strain was acquired from the ATCC (American Type Culture Collection). It was cultured axenically in trypticase–yeast extract–maltose medium (TYM, at pH 6.0) supplemented with 10% sterile horse serum (previously inactivated at 56 °C for 30 min) and incubated at 37 °C [42]. The trophozoites were analyzed via motility, morphology, and trypan blue dye exclusion assays (0.4%) under an optical microscope with a magnification of 40×. The parasites were cultured for 24 h at 37 °C, corresponding to the logarithmic growth phase, and were used for anti-Trichomonas assays.
The anti-Trichomonas activity was evaluated in 1.5 mL tubes, where 2.6 × 10^5 trophozoites/mL was treated with increasing concentrations (0–10 µM) of the selected compounds. The tubes were incubated at 37 °C for 24 h. Then the trypan blue dye exclusion and XTT assay tests were used for evaluations of cell viability, as previously described. […] The IC50 values were calculated using GraphPad Prism 8.0 Inc. software, Version 8.0.2 (263) (San Diego, CA, USA).

CaCo-2 cells = experiment: In vitro cytotoxicity assay (XTT), Caco-2; conditions: CC50 CaCo-2 / IC50 trophozoites
Description: as §1, §2

[4] = In vitro cytotoxicity assay (XTT), Caco-2; conditions: human
Description: as §1, §2

[5] = tested on: T. vaginalis trophozoites (metabolic gene transcripts); experiment: Relative gene expression of T. vaginalis in presence of compounds (RT-qPCR, 2^-ΔΔCt, PK reference gene); type: cell-based, Trichomonas vaginalis; conditions: 24 h at IC50 concentration; for Increase of PFK transcripts: vs untreated control
Description: The main carbon and energy source for T. vaginalis is the fermentative carbohydrate metabolism. We sought to determine whether the death of T. vaginalis is related to changes in its metabolic genes. A gene expression assay based on RT-qPCR was performed to evaluate the transcription levels of several genes in T. vaginalis trophozoites that were incubated for 24 h at the IC50 concentration for each compound.
To evaluate the expression levels of the genes involved in the metabolism of T. vaginalis in the absence and presence of trichomonacidal compounds, the genetic expression levels of 15 genes were analyzed by means of real-time RT-qPCR. To this end, genes encoding enzymes involved in essential metabolic pathways for cell survival, such as glycolysis, the pentose phosphate pathway, structural proteins, and redox maintenance, were identified using the GenBank database (https://www.ncbi.nlm.nih.gov/genbank/ accessed on 15 January 2023) (Table 3).
The total RNA from trophozoites in the absence and presence of the compound was extracted using TRIzol® Reagent (Invitrogen, Carlsbad, CA, USA) according to the manufacturer’s instructions. The quality of RNA was assessed at 260/280 nm, and the integrity was assessed by 2.0% (w/v) agarose gel electrophoresis. For synthesis of the cDNA, samples were treated with 1 U of DNAase I enzyme (Thermo Fisher Scientific, Waltham, MA, USA). cDNA was synthesized using the primers Oligo (dT) 18 (Thermo Fisher Scientific) and RevertAid reverse transcriptase (Thermo Fisher Scientific). All synthesized cDNAs were quantified and stored at −70 °C until use.
We evaluated the expression levels of genes involved in the metabolism of T. vaginalis trophozoites in the absence and presence of trichomonacidal compounds. The amplification of the specific PCR products and the specificity of the primers of the genes proposed in this study (Table 4) were determined using the Fast SYBR® Green Master Mix kit (Applied Biosystems, Foster City, CA, USA) in the StepOnePlusTM Real-Time PCR Systems platform (Life Technologies, Foster City, CA, USA), which was carried out according to the method previously reported by Gutiérrez-Cardona et al..
The relative changes in the expression levels of the target genes (PK, CK, PFK, ALDO, TPI, GAPDH, ENOL, G6PD, 6PGDH, TKT, TALDO, PFOR, NADH, ACT, and TUB) were analyzed by the 2^−ΔΔCt method, using the PK reference gene for normalization. The curve was fitted with GraphPad Prism 8 software (GraphPad Software Inc., La Jolla, CA, USA), and statistical analysis was performed. ANOVA and the Tukey–Kramer test were used to evaluate the relative change in expression after normalization. Three replicates were included for each treatment, and all reactions were performed in triplicate.

[6] = HT29 cells, HT29 CC50, 48 h, 0–500 µM, XTT
[7] = Caco-2, CaCo-2 CC50, 48 h, 0–500 µM, XTT

Structure (SMILES): Cc1ncc([N+](=O)[O-])n1CCOC(=O)NC1CCCCC1 [AGR-1]
Effect on kinetic growth curve of T. vaginalis [1]: more significant delay in the logarithmic and stationary phases | HT29 SI (CC50/IC50) (HT29 cells): 794 | CC50 at 48 h [2, 6]: 532 µM | IC50 [3]: 0.67 µM | Enhancement of trichomonacidal effect in relation to MTZ [3]: fivefold | Enhancement of trichomonacidal effect in relation to NTZ [3]: 10 fold | CaCo-2 SI (CC50/IC50) (CaCo-2 cells): 970.0 | CC50 at 48 h [4, 7]: 650 µM | Effect on ALDO expression [5]: increased | Expression of NADH oxidase gene [5]: decreased | Overexpression of PFOR [5]: 11 fold | Increase of PFK transcripts [5]: 1.2 fold

Structure (SMILES): Cc1ncc([N+](=O)[O-])n1CCOC(=O)Nc1ccc(Cl)cc1 [AGR-3]
HT29 SI (CC50/IC50) (HT29 cells): >1000 | CC50 at 48 h [2, 6]: 660 µM | IC50 [3]: 0.64 µM | Enhancement of trichomonacidal effect in relation to MTZ [3]: fivefold | Enhancement of trichomonacidal effect in relation to NTZ [3]: 10 fold | CaCo-2 SI (CC50/IC50) (CaCo-2 cells): 817.1 | CC50 at 48 h [4, 7]: 523 µM | Effect on ALDO expression [5]: reduced | Effect on GAPDH expression [5]: reduced | Effect on PFK expression [5]: negatively affected | Overexpression of PFOR [5]: 7.5 fold

Structure (SMILES): Cc1ncc([N+](=O)[O-])n1CCOC(=O)Nc1ccc([N+](=O)[O-])cc1 [AGR-5]
HT29 SI (CC50/IC50) (HT29 cells): 386 | CC50 at 48 h [2]: 560 µM | IC50 [3]: 1.45 µM | CaCo-2 SI (CC50/IC50) (CaCo-2 cells): 400 | CC50 at 48 h ([4]; Caco-2): 580 µM | Effect on PFK expression [5]: negatively affected | Expression of NADH oxidase gene [5]: decreased | Overexpression of PFOR [5]: 2.5 fold

Structure (SMILES): Cc1ncc([N+](=O)[O-])n1CCOC(=O)Nc1ccc(F)cc1 [AGR-4]
Effect on kinetic growth curve of T. vaginalis [1]: more significant delay in the logarithmic and stationary phases; also recorded: inhibited the growth of the parasite to a greater degree | HT29 SI (CC50/IC50) (HT29 cells): 617 | CC50 at 48 h [2, 6]: 593 µM | IC50 [3]: 0.96 µM | CaCo-2 SI (CC50/IC50) (CaCo-2 cells): 531.2 | CC50 at 48 h [4, 7]: 510 µM | Decrease in the expression of PFOR [5]: 1.5 fold | Effect on ALDO expression [5]: reduced | Effect on GAPDH expression [5]: reduced | Effect on PFK expression [5]: negatively affected | Expression of NADH oxidase gene [5]: decreased

Structure (SMILES): Cc1ncc([N+](=O)[O-])n1CCO [MTZ, metronidazole, reference compound]
IC50 [3]: 3.1 µM

Now from value to molecule, other results behind:

IC50 [3]: 6.62 µM
Structure (SMILES): CC(=O)Oc1ccccc1C(=O)Nc1ncc([N+](=O)[O-])s1 [NTZ, nitazoxanide, reference compound]
HT29 SI (CC50/IC50) (HT29 cells): 95.7 | CaCo-2 SI (CC50/IC50) (CaCo-2 cells): 87.6

IC50 [3]: 0.4 µM | Expression of NADH oxidase gene [5]: decreased
Structure (SMILES): Cc1ncc([N+](=O)[O-])n1CCOC(=O)Nc1ccccc1 [AGR-2]
Effect on kinetic growth curve of T. vaginalis [1]: more significant delay in the logarithmic and stationary phases | HT29 SI (CC50/IC50) (HT29 cells): >1000 | CC50 at 48 h [2, 6]: 730 µM | Enhancement of trichomonacidal effect in relation to MTZ [3]: 8 fold | Enhancement of trichomonacidal effect in relation to NTZ [3]: 16 fold | CaCo-2 SI (CC50/IC50) (CaCo-2 cells): >1000 | CC50 at 48 h [4, 7]: 560 µM | Effect on ALDO expression [5]: reduced | Effect on GAPDH expression [5]: reduced | Overexpression of PFOR [5]: 7.5 fold | Increase of PFK transcripts [5]: 1.5 fold
